According to US7368578B2, “Five-membered heterocyclic compounds” (Takeda Pharmaceutical Company Limited, priority 2002, dated 2008):

Compound | melting point [°C]
CCOC(=O)Cc1ccc(-c2nc(COc3ccc(COc4nn(-c5ccccc5)cc4/C=C/c4csc(C(C)C)n4)cc3OC)c(C)o2)cc1 [Example 360, ethyl {4-[4-({4-[({4-[(E)-2-(2-isopropyl-1,3-thiazol-4-yl)ethenyl]-1-phenyl-1H-pyrazol-3-yl}oxy)methyl]-2-methoxyphenoxy}methyl)-5-methyl-1,3-oxazol-2-yl]phenyl}acetate] | 89 to 90
CCOC(=O)Cc1ccc(-c2nc(COc3ccc(COc4nn(-c5ccccc5)cc4/C=C\c4csc(C(C)C)n4)cc3OC)c(C)o2)cc1 [Example 360, ethyl {4-[4-({4-[({4-[(Z)-2-(2-isopropyl-1,3-thiazol-4-yl)ethenyl]-1-phenyl-1H-pyrazol-3-yl}oxy)methyl]-2-methoxyphenoxy}methyl)-5-methyl-1,3-oxazol-2-yl]phenyl}acetate] | 126 to 127
COc1cc(COc2nn(-c3ccccc3)cc2/C=C/c2csc(CO)n2)ccc1OCc1nc(-c2ccc(CC(=O)O)cc2)oc1C [Example 365, (4-{4-[(4-{[(4-{(E)-2-[2-(hydroxymethyl)-1,3-thiazol-4-yl]ethenyl}-1-phenyl-1H-pyrazol-3-yl)oxy]methyl}-2-methoxyphenoxy)methyl]-5-methyl-1,3-oxazol-2-yl}phenyl)acetic acid] | 204 to 205
CCOC(=O)Cc1ccc(-c2nc(COc3ccc(COc4nn(-c5ccccc5)cc4/C=C/c4coc(CC)n4)cc3OC)c(C)o2)cc1 [Example 366, ethyl {4-[4-({4-[({4-[(E)-2-(2-ethyl-1,3-oxazol-4-yl)ethenyl]-1-phenyl-1H-pyrazol-3-yl}oxy)methyl]-2-methoxyphenoxy}methyl)-5-methyl-1,3-oxazol-2-yl]phenyl}acetate] | 155 to 157
CCOC(=O)Cc1ccc(-c2nc(COc3ccc(COc4nn(-c5ccccc5)cc4/C=C/c4coc(C(C)C)n4)cc3OC)c(C)o2)cc1 [Example 367, ethyl {4-[4-({4-[({4-[(E)-2-(2-isopropyl-1,3-oxazol-4-yl)ethenyl]-1-phenyl-1H-pyrazol-3-yl}oxy)methyl]-2-methoxyphenoxy}methyl)-5-methyl-1,3-oxazol-2-yl]phenyl}acetate] | 106 to 108
CCOC(=O)Cc1ccc(-c2nc(COc3ccc(COc4nn(-c5ccccc5)cc4/C=C/c4coc(C(C)(C)C)n4)cc3OC)c(C)o2)cc1 [Example 368, ethyl {4-[4-({4-[({4-[(E)-2-(2-tert-butyl-1,3-oxazol-4-yl)ethenyl]-1-phenyl-1H-pyrazol-3-yl}oxy)methyl]-2-methoxyphenoxy}methyl)-5-methyl-1,3-oxazol-2-yl]phenyl}acetate] | 126 to 129
CCc1nc(/C=C/c2cn(-c3ccccc3)nc2OCc2ccc(OCc3nc(-c4cccc(C#N)c4)oc3C)c(OC)c2)cs1 [Example 372, 3-[4-({4-[({4-[(E)-2-(2-ethyl-1,3-thiazol-4-yl)ethenyl]-1-phenyl-1H-pyrazol-3-yl}oxy)methyl]-2-methoxyphenoxy}methyl)-5-methyl-1,3-oxazol-2-yl]benzonitrile] | 138 to 140
CCc1nc(/C=C/c2cn(-c3ccccc3)nc2OCc2ccc(OCc3nc(-c4cccc(-c5noc(=O)[nH]5)c4)oc3C)c(OC)c2)cs1 [Example 375, 3-{3-[4-({4-[({4-[(E)-2-(2-ethyl-1,3-thiazol-4-yl)ethenyl]-1-phenyl-1H-pyrazol-3-yl}oxy)methyl]-2-methoxyphenoxy}methyl)-5-methyl-1,3-oxazol-2-yl]phenyl}-1,2,4-oxadiazol-5(4H)-one] | 139 to 140
CCc1nc(/C=C/c2cn(-c3ccccc3)nc2OCc2ccc(OCc3nc(-c4cccc(C(=O)NS(C)(=O)=O)c4)oc3C)c(OC)c2)cs1 [Example 376, 3-[4-({4-[({4-[(E)-2-(2-ethyl-1,3-thiazol-4-yl)ethenyl]-1-phenyl-1H-pyrazol-3-yl}oxy)methyl]-2-methoxyphenoxy}methyl)-5-methyl-1,3-oxazol-2-yl]-N-(methylsulfonyl)benzamide] | 211 to 213
CCOC(=O)Cc1ccc(-c2nc(COc3ccc(COc4nn(-c5ccccc5)cc4/C=C/c4nc(CC)sc4C)cc3OC)c(C)o2)cc1 [Example 378, ethyl {4-[4-({4-[({4-[(E)-2-(2-ethyl-5-methyl-1,3-thiazol-4-yl)ethenyl]-1-phenyl-1H-pyrazol-3-yl}oxy)methyl]-2-methoxyphenoxy}methyl)-5-methyl-1,3-oxazol-2-yl]phenyl}acetate] | 127 to 128
CCOC(=O)Cc1ccc(-c2nc(COc3ccc(COc4nn(-c5ccccc5)cc4/C=C/c4nc(N5CCN(C(=O)OC(C)(C)C)CC5)sc4C)cc3OC)c(C)o2)cc1 [Example 380, tert-butyl 4-{4-[(E)-2-(3-{[4-({2-[4-(2-ethoxy-2-oxoethyl)phenyl]-5-methyl-1,3-oxazol-4-yl}methoxy)-3-methoxybenzyl]oxy}-1-phenyl-1H-pyrazol-4-yl)ethenyl]-5-methyl-1,3-thiazol-2-yl}piperazine-1-carboxylate] | 112 to 114
COc1cc(COc2nn(-c3ccccc3)cc2/C=C/c2nc(N3CCN(C(=O)OC(C)(C)C)CC3)sc2C)ccc1OCc1nc(-c2ccc(CC(=O)O)cc2)oc1C [Example 381, [4-(4-{[4-({[4-((E)-2-{2-[4-(tert-butoxycarbonyl)piperazin-1-yl]-5-methyl-1,3-thiazol-4-yl}ethenyl)-1-phenyl-1H-pyrazol-3-yl]oxy}methyl)-2-methoxyphenoxy]methyl}-5-methyl-1,3-oxazol-2-yl)phenyl]acetic acid] | 119 to 120
CCOC(=O)Cc1ccc(-c2nc(COc3ccc(COc4nn(-c5ccccc5)cc4/C=C/c4nc(N5CCCCC5)sc4C)cc3OC)c(C)o2)cc1 [Example 382, ethyl [4-{4-[(2-methoxy-4-{[(4-{(E)-2-[5-methyl-2-(piperidin-1-yl)-1,3-thiazol-4-yl]ethenyl}-1-phenyl-1H-pyrazol-3-yl)oxy]methyl}phenoxy)methyl]-5-methyl-1,3-oxazol-2-yl}phenyl]acetate] | 131 to 132
COc1cc(COc2nn(-c3ccccc3)cc2/C=C/c2nc(N3CCCCC3)sc2C)ccc1OCc1nc(-c2ccc(CC(=O)O)cc2)oc1C [Example 383, [4-{4-[(2-methoxy-4-{[(4-{(E)-2-[5-methyl-2-(piperidin-1-yl)-1,3-thiazol-4-yl]ethenyl}-1-phenyl-1H-pyrazol-3-yl)oxy]methyl}phenoxy)methyl]-5-methyl-1,3-oxazol-2-yl}phenyl]acetic acid] | 146 to 148
COc1cc(COc2nn(-c3ccccc3)cc2/C=C/c2nc(N3CCOCC3)sc2C)ccc1OCc1nc(-c2ccc(CC(=O)O)cc2)oc1C [Example 385, [4-(4-{[2-methoxy-4-({[4-{(E)-2-[5-methyl-2-(morpholin-4-yl)-1,3-thiazol-4-yl]ethenyl}-1-phenyl-1H-pyrazol-3-yl]oxy}methyl)phenoxy]methyl)-5-methyl-1,3-oxazol-2-yl}phenyl]acetic acid] | 171 to 173
CCc1nc(/C=C/c2cn(-c3ccccc3)nc2OCc2ccc(OCc3nc(-c4cccc(NS(C)(=O)=O)c4)oc3C)c(OC)c2)cs1 [Example 388, N-{3-[4-({4-[({4-[(E)-2-(2-ethyl-1,3-thiazol-4-yl)ethenyl]-1-phenyl-1H-pyrazol-3-yl}oxy)methyl]-2-methoxyphenoxy}methyl)-5-methyl-1,3-oxazol-2-yl]phenyl}methanesulfonamide] | 113 to 115
CCc1nc(/C=C/c2cn(-c3ccccc3)nc2OCc2cc(OCc3nc(-c4ccc(CC(=O)O)cc4)oc3C)no2)cs1 [Example 390, (4-{4-[({5-[({4-[(E)-2-(2-ethyl-1,3-thiazol-4-yl)ethenyl]-1-phenyl-1H-pyrazol-3-yl}oxy)methyl]isoxazol-3-yl}oxy)methyl]-5-methyl-1,3-oxazol-2-yl}phenyl)acetic acid] | 156 to 158
